The values that follow come from patent US20250269031A1, “MITOCHONDRIA TARGETING QUINOLINIUM-DRUG CONJUGATES AND THEIR SELF-ASSEMBLING NANOFORMULATIONS FOR CANCER THERAPY” (THE REGENTS OF THE UNIVERSITY OF CALIFORNIA, priority 2020, published 2025).

Like-named read-outs stand apart in the source and are kept apart here.

Data set [1] deals with Pancreatic cancer stem cells (CSC). Kind of data set: Cell viability assay, pancreatic cancer stem cells. In kind it is cell-based. On the procedure: Cell viability assay. Pancreatic cancer stem cells (CSC, 5×10^3 cells per well) was plated in 96-well plates, incubated overnight, and then were treated with different concentrations of agents as indicated. After 72 h treatment, cell viability was quantified using the CellTiter-Glo assay Cell viability curves and the chemical structures of LM, LND, and m104 are shown in FIG. 31A and FIG. 31B.

Data set [2] has as its system Pancreatic cancer stem cells. Kind of data set: Sphere formation. In kind it is cell-based. The conditions noted are these: 5 μM, 10 days.
Description: Pancreatic cancer stem cells (3000 cells per well) were mixed with matrigel and medium, and then placed in 24-well plates with pre-embedded matrigel and medium. After 24 h incubation, CSC cells were then treated with different agents as indicated and cultured for 10 days. The cells were imaged as shown in FIG. 33A and the sphere diameters were calculated by ImageJ and are plotted in FIG. 33B.
Data set [3] has as its system CSC spheres (with Stella cell). Kind of data set: Sphere growth, CSC spheres with Stella cell. In kind it is cell-based. Particulars: 5 μM.
Description: Sphere growth. […] CSC cells (800 cells per well) and stella cells (400 cells per well) were plated together in 96-well low-attachment plates and incubated overnight. CSC spheres then were treated with different agents as indicated. Spheres growth was monitored by CLSM (every two days).
For data set [4], the system named is CSC cells. Kind of data set: Seahorse assay (oxygen consumption rate). In kind it is cell-based. Particulars: 24 h.
Description: Seahorse assay. CSC cells (2×10^4 cells per well) were treated as indicated for 24 h. The Oxygen Consumption Rate (OCR) were measured by the Agilent Seahorse XF analyzer.
Data set [5] deals with Pancreatic cancer stem cells. The experiment in a line: Cell growth assay. The format is cell-based. The conditions noted are these: 2 μM. The procedure: Cell growth. Pancreatic cancer stem cells were plated in 6-well plates (50,000 cell per well) and treated as indicated and were counted manually every 24 h. The cell growth is plotted over time in FIG. 31C.
The next data set concerns Bxpc-3 and AsPc cells. The experiment in a line: Cell viability, Bxpc-3 and AsPc. Particulars: 72 h treatment. In kind it is cell-based. On the procedure:
Cell viability. Bxpc-3 and AsPc cells (CSC, 5×10^3 cells per well) was plated in 96-well plates, incubated overnight, and then were treated with different concentrations of agents as indicated. After 72 h treatment, cell viability was quantified using the CellTiter-Glo assay.

Data set [6] concerns CSC cells. Kind of data set: Mitochondria membrane potential (JC-1), CSC. The format is cell-based. Particulars: 24 h. On the procedure:
Mitochondria membrane potential. JC-1 dye was used as an indicator of mitochondrial membrane potential. Briefly, Cells (2×10^4 cells per well) were treated as indicated for 24 h, washed and cultured with fresh medium. Then 0.5 μg/mL JC-1 was added for another 30 min incubation. Images were captured by CLSM.

Data set [7] concerns OSC-3 cells. Kind of data set: Cell viability assay (CellTiter-Glo), OSC-3. The conditions noted are these: for IC50: read-out: IC50 cytotoxicity; for anticancer effect: OSC-3, with light, 0.3 μM to 1 μM. In kind it is cell-based. In general terms: ATP-based viability assays read luminescence as a measure of living cells.
Description: OSC-3, BXPC-3, AsPC-1, PANC-1, UM-UC-3, 5637, or IMR90 cells were seeded in 96-well plates at a density of 5×10^3 cells per well and were grown overnight. Cells were incubated with various concentrations of drugs for 24 h, followed washing with PBS three times, and adding 100 μL fresh medium. For light-treated groups, cells were irradiated for 30 s using a 633-nm LED array (Omnilux new-U) at a power density of 30 mW cm^−2 at room temperature and then were cultured for another 24 h in parallel with non-light treated groups. Cell viability was quantified using the CellTiter-Glo assay (Promega, USA).
Data set [8] has as its system OSC-3 cells. The experiment in a line: Mitochondrial membrane potential assay (JC-1). Particulars: 1 μM, with light. The format is cell-based. On the procedure: The mitochondrial membrane potential was determined using the dye JC-1 as a probe (Thermo Fisher Scientific, USA). Briefly, OSC-3 cells (2×10^4 cells per well) were treated with drugs (1 μM) for 24 h. […] JC-1 (5 μg mL^−1) was added to incubate for 20 min. Cell imaging was performed on a CLSM (Carl Zeiss, Germany). The ratio of red/green fluorescence intensity was calculated by ImageJ software.

The subject of data set [9] is OSC-3 cells. The experiment in a line: Cell TEM study of mitochondria morphology. In kind it is cell-based. The conditions noted are these: 0.5 μM, 24 h.
The test system of data set [10] is subcutaneous OSC-3 tumor. Kind of data set: In vivo anticancer study, subcutaneous oral cancer model. Further details: species or system nude mice. Particulars: for H&E staining of tumors: 24 h drug, then laser; for antitumor effect: with laser; for antitumor efficacy: without laser. From the text: (§1) Female athymic nude mice, 6-week-old, were purchased from Envigo (Indianapolis, IN, USA). All animal experiments were strictly performed in compliance with the protocol (#20265) approved by the Institutional Animal Care and Use Committee at the University of California, Davis. The subcutaneous and orthotopic tumor models were established by inoculated OSC-3 cells into both flanks (5×10^6 cells per tumor) or lower lips (1×10^6 cells per tumor) of nude mice. When the subcutaneous tumors reached about 80 mm^3 and orthotopic tumors reached about 50 mm^3, the mice started to be treated as indicated.
Laser (680 nm) treatment was conduct by a laser device within an energy of 0.2 W cm^−2 for 6 min (Shanghai Xilong Optoelectronics Technology, China). […] The drug was intratumorally injected into mice at a dose of 1 mM (10 nmol per 50 mm^3 tumor). Laser treatment was performed for a total of four times, one each on days 1, 2, 5, and 6 post-injection of drugs. The relative tumor value and body weight were recorded every two days. In subcutaneous models, the tumors in the right flank of mice were subjected to laser treatment, while the left tumors were not. In orthotopic models, all tumors were treated with the laser treatment. The temperature of tumor surface was monitored using a thermal camera (FLIR Systems, USA) immediately after laser treatment. ROS production in the tumor after light treatment was also measured using DCF-DA as an indicator. Briefly, the tumor was treated with different drugs via intratumoral injection at first. Then, the mice with tumors were treated with the laser at 1st, 2nd, 5th, and 6th day independently. After each light treatment, the mice were sacrificed immediately, and the obtained tumors were cut into small pieces and immersed in the DCF-DA solutions for 10 min. Finally, the tumors pieces were imaged by the ChemiDoc™ MP imaging system with the FITC channel. The fluorescence intensity of DCF-DA was quantified by Image J software. Mice were sacrificed after the first light treatment to obtain tumor and organs tissue for TEM, H&E, and IHC evaluation.

Data set [11] relates to OSC-3 cells. Kind of data set: Colocalization assay (MitoTracker, LysoTracker, CLSM). In kind it is cell-based. Particulars: 2 μM, 4 h. On the procedure: OSC-3 cells were treated with PQC NFs (2 μM) for various times (from 5 min to 8 h) or with PA (2 μM) for 4 h, followed by incubation with LysoTracker Green (Thermo Fisher Scientific, USA) and MitoTracker Red (Cell Signaling Technology, USA) for 30 min. Cells were visualized on confocal laser scanning microscopy (CLSM) (Carl Zeiss, Germany) immediately to investigate the subcellular localization. Signals of PQC NPs and PA were observed on the Cy5 channel. LysoTracker and MitoTracker were observed according the manufacturer's instructions. The corresponding Pearson correlation coefficient was calculated by ImageJ software.

Data set [12] deals with OSC-3 cells. Kind of data set: Apoptosis assay (Annexin V-APC/PI). In kind it is cell-based. On the procedure:
Apoptosis assay was performed with the Annexin V-APC/propidium iodide (PI) apoptosis kit (Biolegend, USA). […] […] Cells were stained with the apoptosis kit according to the manufacturer's instructions. All samples of cells were collected for flow cytometry using a BD FACSCanto flow cytometer (BD, USA). Data analysis was accomplished using FlowJo software.

Data set [13] deals with subcutaneous OSC-3 tumor. The experiment in a line: In vivo fluorescence imaging, tumor retention. Further details: species or system nude mice. The conditions noted are these: intratumoral injection, 10 nmol per 50 mm^3.
Excerpt: as §1
The subcutaneous tumor model was used in fluorescence imaging study in vivo of PA and PQC NFs. PA and PQC NFs (10 nmol per 50 mm^3 tumor) were administered by intratumoral injection. Fluorescence imaging were performed on a ChemiDoc™ MP imaging system (Bio-Rad, USA) at different time points post-injection.

The subject of the next data set is OSC-3 tumors. The experiment in a line: Intratumoral ROS production (DCF-DA, ex vivo imaging). Particulars: laser at days 1, 2, 5, 6 post-injection. In kind it is in vivo, nude mice. The procedure:
Laser (680 nm) treatment was conduct by a laser device within an energy of 0.2 W cm^−2 for 6 min (Shanghai Xilong Optoelectronics Technology, China). Mice bearing subcutaneous and orthotopic tumors were randomly divided into four groups (n=6): Vehicle (PBS), DQA, PA, and PQC NFs. The drug was intratumorally injected into mice at a dose of 1 mM (10 nmol per 50 mm^3 tumor). Laser treatment was performed for a total of four times, one each on days 1, 2, 5, and 6 post-injection of drugs. The relative tumor value and body weight were recorded every two days. In subcutaneous models, the tumors in the right flank of mice were subjected to laser treatment, while the left tumors were not. In orthotopic models, all tumors were treated with the laser treatment. The temperature of tumor surface was monitored using a thermal camera (FLIR Systems, USA) immediately after laser treatment. ROS production in the tumor after light treatment was also measured using DCF-DA as an indicator. Briefly, the tumor was treated with different drugs via intratumoral injection at first. Then, the mice with tumors were treated with the laser at 1st, 2nd, 5th, and 6th day independently. […] The fluorescence intensity of DCF-DA was quantified by Image J software. […]

Data set [14] can be described thus: Characterization of PQC NFs (TEM, DLS). In kind it is physicochemical. The procedure:
Preparation and Characterization of PQC NFs: Briefly, PQC monomers in ethanol were added dropwise into deionized water under stirring. Ethanol in the solution was removed by vacuum rotary evaporation at 37° C. and the self-assembling PQC NFs were formed spontaneously. The aqueous nanofiber solution (0.02 mg mL^−1) was deposited on copper grids to prepare samples for transmission electron microscope (TEM). The morphology was observed by a Talos L120C TEM (Thermo Fisher Scientific, USA). The UV-Vis and fluorescence spectra were measured by a UV-Vis spectrometer (UV-1800, Shimadzu, Japan) and a fluorescence spectrometer (RF-6000, Shimadzu, Japan), respectively. NIR fluorescence imaging studies was performed by a ChemiDoc™ MP imaging system (Bio-Rad, USA). The ^1O2 production was detected using SOSG (Thermo Fisher Scientific, USA) as an indicator. Briefly, SOSG solution was added into drug solutions in 96 wells plate. […] Fluorescence intensity was determined by a microplate reader (Tecan, Switzerland). The ultrafiltration experiment of PQC NFs were conducted using a centrifuge (10k rpm, 10 min) and a centrifuge tube (10 kDa, Beckman Coulter, USA).

As a reminder, the IC50 is the concentration at which inhibition is half-maximal. For the compound `O=C(O)c1nn(Cc2ccc(Cl)cc2Cl)c2ccccc12` [LND, 1-(2,4-dichlorobenzyl)-1H-indazole-3-carboxylic acid], the IC50 in data set [1] (CSC, 72 h treatment, read-out: IC50) worked out at 30000 ± 2200 nM. For the same compound, the tumorsphere formation entry in [2] was “limited inhibition”. Also, the “CSC tumorsphere (with Stella cell) growth” value in [3] is on record as “no effect”. Moreover, the “oxygen consumption rate (Mito stress test)” value in the data set with CSC cells [4] was “no significant impact on OCRs”.

Turning to `Cc1cc(N)c2ccccc2[n+]1CCCCCCCCCCNC(=O)c1nn(Cc2ccc(Cl)cc2Cl)c2ccccc12` [LM], the IC50 in data set [1] (72 h) turned out to be 460 ± 50 nM. In [5], the cell growth result is on record as “inhibitory effects”. The “potency on other pancreatic tumor cells” value with Bxpc-3 and AsPc cells is “more potent than LND, m104, mixture of LND and m104”. Also, the tumorsphere formation result in data set [2] was “blocked tumorsphere formation in CSCs”. Besides, the “CSC tumorsphere (with Stella cell) growth” value in data set [3] is reported as “inhibits CSC tumorsphere (with Stella cell) growth”. The “mitochondrial membrane potential (JC-1)” value with CSC cells [6] is given as “decreased Δψm”. In the data set on CSC cells [4], the “oxygen consumption rate (Mito stress test)” value is “decrease in basal mitochondrial respiration and spare respiration capacity”.

Turning to `Cc1cc(N)c2ccccc2[n+]1CCCCCCCCCC[n+]1c(C)cc(N)c2ccccc21` [DQA, dequalinium], the IC50 with OSC-3 cells [7] (OSC-3, absence of light, 24 h + 24 h) was determined as 3000 nM. For the same compound, the anticancer effect entry with OSC-3 cells [7] was “did not show obvious anticancer effects”. The “mitochondrial membrane potential change (JC-1)” value in the data set on OSC-3 cells [8] is given as “not effective enough to cause a signal change”. Moreover, the “morphological changes in mitochondria (TEM)” value (“morphological changes” below) in the data set with OSC-3 cells [9] (with light) was “morphologically changed mitochondria with and without light treatment”. In the data set with subcutaneous OSC-3 tumor [10], the “H&E staining of tumors” value is “no significant cell death”, the antitumor effect result is on record as “did not show an obvious antitumor effect” and the antitumor efficacy entry was “did not show significant antitumor efficacy”.

As for pheophorbide a [PA], the cytotoxicity entry with OSC-3 cells [7] (OSC-3, absence of light) is recorded as “did not show cytotoxicity even at 100 uM”. Also, the IC50 in the data set with OSC-3 cells [7] (OSC-3, light treatment 30 mW cm^-2 for 30 s, 633 nm) stood at 2570 nM. The anticancer effect entry in the data set with OSC-3 cells [7] was “did not show obvious anticancer effects”. Moreover, in the data set on OSC-3 cells [11], the subcellular colocalization entry is on record as “low-level colocalization with mitochondria or lysosomes”. In addition, in the data set on OSC-3 cells [8], the “mitochondrial membrane potential change (JC-1)” value is given as “not effective enough to cause a signal change”. Further, the apoptosis induction result with OSC-3 cells [12] (0.2 μM, with light) is “failed to induce apoptosis”. Moreover, in the data set on OSC-3 cells [12] (2 μM, 24 h, light, another 12 h), the “Annexin V positive population” value stood at 19.3%. For the same compound, the “morphological changes” value with OSC-3 cells [9] (with light) is “only caused some mitochondrial swelling”. Further, the “morphological changes” value in the data set with OSC-3 cells [9] (without light) is “healthy mitochondria”. For the same compound, the “fluorescence within tumors over time” value in the data set with subcutaneous OSC-3 tumor [13] is “nearly undetectable at the 4th day post-injection”. In the data set on OSC-3 tumors, the “ROS levels in tumors” value was “high at 24 h post-injection and decreased quickly at later time points”. In the data set with subcutaneous OSC-3 tumor [10], the “H&E staining of tumors” value was “only a small portion of tumor tissue showed apoptosis/necrosis”, the antitumor effect result was “effectively inhibited tumor growth but did not shrink the tumors” and the antitumor efficacy entry is “did not show significant antitumor efficacy”. Also, in [14], the surface charge is reported as −11.5±1.3 mV.
